How the values were obtained:
GTPase KRas [1] = target: GTPase KRas (Homo sapiens, UniProt P01116, G12D); test: Inhibition of KRAS G12D mutant (unknown origin) preincubated for 4 hrs followed by SOS1 addition and measured after 2 hrs by fluorescence based analysis
GTPase KRas [2] = target: GTPase KRas (Homo sapiens, UniProt P01116, G12V); test: Inhibition of KRAS G12V mutant (unknown origin) preincubated for 4 hrs followed by SOS1 addition and measured after 3 hrs by fluorescence based analysis
Sequence of GTPase KRas (Homo sapiens, UniProt P01116, G12V) (P01116 whole entry G12V): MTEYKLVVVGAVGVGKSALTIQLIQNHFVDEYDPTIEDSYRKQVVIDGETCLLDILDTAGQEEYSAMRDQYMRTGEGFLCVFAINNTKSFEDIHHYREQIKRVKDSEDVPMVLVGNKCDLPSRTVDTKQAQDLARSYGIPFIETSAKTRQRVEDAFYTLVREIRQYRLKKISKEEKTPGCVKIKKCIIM

Sequence of GTPase KRas (Homo sapiens, UniProt P01116, G12D) (P01116 whole entry G12D): as the sequence (P01116 whole entry G12V) above, with V12D counted along it

| Structure (SMILES) | IC50 (GTPase KRas [1]) | IC50 (GTPase KRas [2]) |
| --- | --- | --- |
| Cc1nc2c(F)c(-c3cccc(Cl)c3Cl)c(CCC#N)cc2c2c1cc([C@@H](C)NS(=O)(=O)C1CC1)n2[C@H]1[C@H]2CN[C@@H]1C2 | ≤ 100 nM | ≤ 100 nM |
| Cc1nc2c(F)c(-c3cccc(Cl)c3Cl)c(CCC#N)cc2c2c1cc([C@@H](C)NC(=O)c1cscn1)n2[C@H]1[C@H]2CN[C@@H]1C2 | ≤ 100 nM | ≤ 100 nM |
| Cc1nc2c(F)c(-c3cccc(Cl)c3Cl)c(CCC#N)cc2c2c1cc([C@@H](C)NC(=O)c1ccncn1)n2[C@H]1[C@H]2CN[C@@H]1C2 | ≤ 100 nM | ≤ 100 nM |
| CN(C)C1(C)CN(c2nc3c(F)c(-c4cccc5ccc(F)cc45)c(CCC#N)cc3c3c2cc(CN2CCOCC2=O)n3[C@@H]2[C@@H]3CN[C@H]2C3)C1 | ≤ 100 nM | ≤ 100 nM |
| Cc1cc2c(-n3cncn3)nc3c(F)c(-c4cc(O)cc5ccc(Cl)cc45)c(CCC#N)cc3c2n1[C@H]1[C@H]2CN[C@@H]1C2 | ≤ 100 nM | ≤ 100 nM |
| C[C@H](Oc1nc2c(F)c(-c3csc4ccccc34)c(CCC#N)cc2c2c1cc(CN1CCCC1=O)n2[C@H]1[C@H]2CN[C@@H]1C2)[C@@H]1CCCN1C | ≤ 100 nM | ≤ 100 nM |

— ChEMBL document CHEMBL5247679, “Novel Quinoline Compounds as KRAS Inhibitors for Treating Cancer” (ACS Med Chem Lett, 2023)
